≈ marks a conversion by molar mass, not a printed value.
What was measured:
MRSA KS6 = assay: MIC, broth microdilution, MRSA KS6; type: cell-based, Staphylococcus aureus; conditions: for MIC-fold improvement vs. vancomycin: MRSA KS6, ratio of MIC of vancomycin and MIC of analogue; for MIC: Staphylococcus aureus MRSA KS6, read-out: MIC
Summary of the method: (§1)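 Controls (ultrapure water; broth not inoculated) were included throughout CLSI-compliant broth microdilution. One condition supplemented analogue or comparator with 10 μM vancomycin, final level.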

E. faecalis VSE 1 = assay: MIC, broth microdilution, vancomycin-sensitive E. faecalis (VSE 1); type: cell-based, Enterococcus faecalis; conditions: for MIC: Enterococcus faecalis VSE 1 (vancomycin-sensitive), read-out: MIC; for MIC-fold improvement vs. vancomycin: VSE 1, ratio of MIC of vancomycin and MIC of analogue
Summary of the method: as §1

E. faecalis VRE 29 = assay: MIC, broth microdilution, vancomycin-resistant E. faecalis VRE 29 (VanA); type: cell-based, Enterococcus faecalis; conditions: for MIC: Enterococcus faecalis VRE 29 (vancomycin-resistant), read-out: MIC; for MIC-fold improvement vs. vancomycin: VRE 29, ratio of MIC of vancomycin and MIC of analogue
Summary of the method: as §1

E. faecalis VRE 53 = assay: MIC, broth microdilution, vancomycin-resistant E. faecalis VRE 53 (VanA); type: cell-based, Enterococcus faecalis; conditions: for MIC: Enterococcus faecalis VRE 53 (vancomycin-resistant), read-out: MIC; for MIC-fold improvement vs. vancomycin: VRE 53, ratio of MIC of vancomycin and MIC of analogue
Summary of the method: as §1

[1] = test system: human cervix carcinoma (HeLa) cells; assay: Cytostatic activity, HeLa cell proliferation; type: cell-based; conditions: mean ± SD of three experiments; highest concentration tested 250 µM; 4 days; read-out: Toxicity (IC50) HeLa
Summary of the method: (§2)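 Test compounds, serially diluted, received an equal volume of cell suspension at 300,000–500,000 cells/mL. After 37°C incubation (2 days for L1210, 3 for CEM, 4 for HeLa), cells were enumerated by Coulter counting and 50%-inhibitory concentrations calculated per cell type.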

MRSA KS1 = assay: MIC, broth microdilution, MRSA KS1; type: cell-based, Staphylococcus aureus; conditions: for MIC-fold improvement vs. vancomycin: MRSA KS1, ratio of MIC of vancomycin and MIC of analogue; for MIC: Staphylococcus aureus MRSA KS1, read-out: MIC
Summary of the method: as §1

MRSA KS89 = assay: MIC, broth microdilution, MRSA KS89; type: cell-based, Staphylococcus aureus; conditions: for MIC-fold improvement vs. vancomycin: MRSA KS8, ratio of MIC of vancomycin and MIC of analogue; for MIC: Staphylococcus aureus MRSA KS8, read-out: MIC
Summary of the method: as §1

[2] = test system: S. aureus VSSA (ATCC 6538); assay: MIC, broth microdilution, vancomycin-sensitive S. aureus (VSSA/MSSA, ATCC 6538); type: cell-based, Staphylococcus aureus; conditions: for MIC: Staphylococcus aureus VSSA, read-out: MIC; for MIC-fold improvement vs. vancomycin: VSSA, ratio of MIC of vancomycin and MIC of analogue
Summary of the method: as §1

MRSA KS2 = assay: MIC, broth microdilution, MRSA KS2; type: cell-based, Staphylococcus aureus; conditions: for MIC-fold improvement vs. vancomycin: MRSA KS2, ratio of MIC of vancomycin and MIC of analogue; for MIC: Staphylococcus aureus MRSA KS2, read-out: MIC
Summary of the method: as §1

[3] = test system: L1210, CEM and HeLa cell lines; assay: Cytostatic activity, average or summary over L1210, CEM and HeLa; type: cell-based; conditions: average of L1210, CEM and HeLa; read-out: Toxicity (IC50) Average
Summary of the method: as §2

S. aureus VISA/HIP5827 = assay: MIC, broth microdilution, vancomycin-intermediate S. aureus VISA HIP5827; type: cell-based, Staphylococcus aureus; conditions: for MIC: Staphylococcus aureus VISA/HIP5827, read-out: MIC; for MIC-fold improvement vs. vancomycin: VISA/HIP5827, ratio of MIC of vancomycin and MIC of analogue
Summary of the method: as §1

[4] = test system: Murine leukemia (L1210) cells; assay: Cytostatic activity, L1210 cell proliferation; type: cell-based; conditions: mean ± SD of three experiments; highest concentration tested 250 µM; 2 days; read-out: Toxicity (IC50) L1210
Summary of the method: as §2

S. aureus VRSA = assay: MIC, broth microdilution, vancomycin-resistant S. aureus (VRSA); type: cell-based, Staphylococcus aureus; conditions: for MIC: Staphylococcus aureus VRSA, read-out: MIC; for MIC-fold improvement vs. vancomycin: VRSA, ratio of MIC of vancomycin and MIC of analogue
Summary of the method: as §1

E. faecalis VRE 37 = assay: MIC, broth microdilution, vancomycin-resistant E. faecalis VRE 37 (VanA); type: cell-based, Enterococcus faecalis; conditions: for MIC: Enterococcus faecalis VRE 37 (vancomycin-resistant), read-out: MIC
Summary of the method: as §1

E. faecalis VRE 6 = assay: MIC, broth microdilution, vancomycin-resistant E. faecalis VRE 6 (VanA); type: cell-based, Enterococcus faecalis; conditions: for MIC: Enterococcus faecalis VRE 6 (vancomycin-resistant), read-out: MIC; for MIC-fold improvement vs. vancomycin: VRE 6, ratio of MIC of vancomycin and MIC of analogue
Summary of the method: as §1

[5] = test system: human T-lymphocyte (CEM) cells; assay: Cytostatic activity, CEM cell proliferation; type: cell-based; conditions: mean ± SD of three experiments; highest concentration tested 250 µM; 3 days; read-out: Toxicity (IC50) CEM
Summary of the method: as §2

| MIC-fold improvement vs. vancomycin (MRSA KS6) | MIC (MRSA KS6) | MIC (E. faecalis VSE 1) | MIC-fold improvement vs. vancomycin (E. faecalis VSE 1) | MIC (E. faecalis VRE 29) | MIC-fold improvement vs. vancomycin (E. faecalis VRE 29) | MIC (E. faecalis VRE 53) | MIC-fold improvement vs. vancomycin (E. faecalis VRE 53) | MIC-fold improvement vs. vancomycin (MRSA KS1) | MIC (MRSA KS1) | MIC-fold improvement vs. vancomycin (MRSA KS89) | MIC (MRSA KS89) | MIC [2] | MIC-fold improvement vs. vancomycin [2] | MIC-fold improvement vs. vancomycin (MRSA KS2) | MIC (MRSA KS2) | MIC (S. aureus VISA/HIP5827) | MIC-fold improvement vs. vancomycin (S. aureus VISA/HIP5827) | SMILES | IC50 [1] | IC50 [3] | also measured |
| --- | --- | --- | --- | --- | --- | --- | --- | --- | --- | --- | --- | --- | --- | --- | --- | --- | --- | --- | --- | --- | --- |
| 0.25 | 3.13 µM (≈ 5.22 µg/mL) | 0.39 µM (≈ 0.65 µg/mL) | 4 | 12.5 µM (≈ 20.8 µg/mL) | 32 | 25 µM (≈ 41.7 µg/mL) | 16 | 2 | 0.39 µM (≈ 0.65 µg/mL) | 2 | 0.39 µM (≈ 0.65 µg/mL) | 0.39 µM (≈ 0.65 µg/mL) | 2 | 2 | 0.39 µM (≈ 0.65 µg/mL) | 1.56 µM (≈ 2.6 µg/mL) | 4 | CNC(CC(C)C)C(=O)NC1C(=O)NC(CC(N)=O)C(=O)NC2C(=O)NC3C(=O)NC(C(=O)NC(C(=O)NCCCNC(=O)c4cc5cc(F)ccc5[nH]4)c4cc(O)cc(O)c4-c4cc3ccc4O)C(O)c3ccc(c(Cl)c3)Oc3cc2cc(c3OC2OC(CO)C(O)C(O)C2OC2CC(C)(N)C(O)C(C)O2)Oc2ccc(cc2Cl)C1O (stereo not shown) [Vanc-45] | > 250 µM | > 250 µM | IC50 [4]: > 250 µM; MIC (S. aureus VRSA): 1.56 µM (≈ 2.6 µg/mL); MIC-fold improvement vs. vancomycin (S. aureus VRSA): 64; MIC (E. faecalis VRE 37): 12.5 µM (≈ 20.8 µg/mL); MIC (E. faecalis VRE 6): 3.13 µM (≈ 5.22 µg/mL); MIC-fold improvement vs. vancomycin (E. faecalis VRE 6): 64; IC50 [5]: > 250 µM |
| 4 | 0.20 µM (≈ 0.345 µg/mL) | 0.39 µM (≈ 0.673 µg/mL) | 4 | 6.25 µM (≈ 10.8 µg/mL) | 64 | 6.25 µM (≈ 10.8 µg/mL) | 64 | >8 | <0.10 µM | 4 | 0.20 µM (≈ 0.345 µg/mL) | 0.39 µM (≈ 0.673 µg/mL) | 2 | 4 | 0.20 µM (≈ 0.345 µg/mL) | 0.78 µM (≈ 1.35 µg/mL) | 8 | CN[C@H](CC(C)C)C(=O)N[C@H]1C(=O)N[C@@H](CC(N)=O)C(=O)N[C@H]2C(=O)N[C@H]3C(=O)N[C@H](C(=O)N[C@H](C(=O)NCC(=O)Nc4ccc(-c5cn(-c6ccccc6)nn5)cc4)c4cc(O)cc(O)c4-c4cc3ccc4O)[C@H](O)c3ccc(c(Cl)c3)Oc3cc2cc(c3O[C@@H]2O[C@H](CO)[C@@H](O)[C@H](O)[C@H]2O[C@H]2C[C@](C)(N)[C@H](O)[C@H](C)O2)Oc2ccc(cc2Cl)[C@H]1O [Vanc-77] | 58 ± 7 µM | 92 µM | IC50 [4]: 192 ± 101 µM; MIC (S. aureus VRSA): 0.78 µM (≈ 1.35 µg/mL); MIC-fold improvement vs. vancomycin (S. aureus VRSA): 128; MIC (E. faecalis VRE 37): 6.25 µM (≈ 10.8 µg/mL); MIC-fold improvement vs. vancomycin (E. faecalis VRE 37; VRE 37, ratio of MIC of vancomycin and MIC of analogue): 64; MIC (E. faecalis VRE 6): 1.56 µM (≈ 2.69 µg/mL); MIC-fold improvement vs. vancomycin (E. faecalis VRE 6): 128; IC50 [5]: 26 ± 1 µM |

Source: article PMC6001238, “Iterative Chemical Engineering of Vancomycin Leads to Novel Vancomycin Analogs With a High in Vitro Therapeutic Index” (Frontiers in Microbiology, 2018)
